US20220008455A1, “Compound and Composition for Use in the Preventive and/or Curative Treatment of Diseases of the Central Nervous System Characterised by a Decline in Neuronal Plasticity, in Particular Characterised by a Decline in Synaptic Plasticity” (SYNAPHARM INDUSTRIAL SYNTHESIS, priority 2017, published 2022)

Test system: synaptic responses between Schaffer collaterals and dendrites in the CA1 region
Test: Long-term potentiation in hippocampal slices of magnesium-deficient rats (restoration of synaptic plasticity)
Type: ex vivo, rat
Description: [Comparative experiments were conducted on rats to measure the efficiency of synaptic transmission and synaptic plasticity, in particular in order to measure the recovery of synaptic plasticity.
Three groups of rats were made up as follows:
Group 1: control rats on a normal diet;
Group 2: magnesium-deficient rats on a low-magnesium diet;
Group 3: magnesium-deficient rats supplemented with a composition according to the invention containing magnesium N-acetyl taurinate dihydrate containing two intrinsic water molecules (ATAMg dihydrate) at a dose of […] magnesium N-acetyl taurinate dihydrate containing two intrinsic water molecules (in the water). Supplementation was started 40 days after the beginning of the low-magnesium diet and was carried on for 24 days.
The hippocampi of the rats from each group were dissected to measure synaptic plasticity. In particular, synaptic responses were measured between Schaffer collaterals and dendrites in the CA1 region. A baseline was recorded for 30 minutes corresponding to a synaptic response of 40% of the peak response. Then the long-term plasticity process was induced by applying four 100 Hz trains at 5-minute intervals. The increased response was measured over four hours. For every experiment, a control pathway without any high-frequency stimulation was also measured.

## CC(=O)NCCS(=O)(=O)[O-].CC(=O)NCCS(=O)(=O)[O-].O.O.[Mg+2] [magnesium N-acetyl taurinate dihydrate]
Group 3: magnesium-deficient rats supplemented in the water at 50 mg/kg/hour (50 mg/kg/day) for 24 days, four 100 Hz trains, response measured over four hours, FIG. 3
  long-term potentiation: over 300%
Group 3: magnesium-deficient rats supplemented in the water for 24 days, control pathway without high-frequency stimulation, FIG. 3
  control pathway / baseline stability: stabilisation of the baseline
Comparison of Group 3 (supplemented) with Group 2 (magnesium-deficient rats)
  recovery/restoration of synaptic plasticity: induces the recovery/restoration of synaptic plasticity
